Key:
[1] = molecular target: T1, recombinant human ALK5 (TGF-βR1) protein (Homo sapiens, UniProt P36897); assay: Biochemical ALK5 (TGF-βR1) assay to measure pKi (LANCE Ultra ULight kinase assay); details: apparent pKi from pIC50 by Cheng-Prusoff, read-out: ALK5 pKi (converted)
T1 construct: purchased Life Technologies PR9075A
T1 sequence (P36897 34-503): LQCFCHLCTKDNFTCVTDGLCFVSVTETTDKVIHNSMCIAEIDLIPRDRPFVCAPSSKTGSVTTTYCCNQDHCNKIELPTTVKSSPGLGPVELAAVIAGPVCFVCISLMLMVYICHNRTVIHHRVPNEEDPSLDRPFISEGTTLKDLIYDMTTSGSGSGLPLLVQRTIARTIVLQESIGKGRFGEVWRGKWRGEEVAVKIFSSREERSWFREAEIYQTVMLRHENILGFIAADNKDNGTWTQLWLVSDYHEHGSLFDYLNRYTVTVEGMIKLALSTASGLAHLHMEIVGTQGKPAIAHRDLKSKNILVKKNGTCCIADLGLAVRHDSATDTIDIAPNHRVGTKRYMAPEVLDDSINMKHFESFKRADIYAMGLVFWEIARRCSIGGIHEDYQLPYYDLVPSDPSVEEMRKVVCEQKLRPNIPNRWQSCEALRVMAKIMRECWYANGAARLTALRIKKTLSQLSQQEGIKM
How it was run: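 Dose range 10 μM–25 pM; enzyme + compound 60 min RT; ATP added (5× stock 125 μM, 2 mM DTT); 60 min 37 °C; stop with EDTA + Eu anti-phospho-Topo IIα Thr1342 Ab; TR-FRET ex 320/340, em 665 nm. 4-param pIC50 → pKi (Cheng-Prusoff).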

[2] = tested on: TGF-β-stimulated SMAD3 phosphorylation in BEAS-2B cells; assay: Cellular ALK5 potency assay, inhibition of TGF-β stimulated pSMAD3 formation in BEAS-2B cells; type: cell-based; details: Homo sapiens; inhibition of TGF-β stimulated pSMAD3 formation, BEAS-2B cells; read-out: BEAS2B pIC50 (converted)
How it was run: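 BEAS-2B human lung epithelial cells, seeded overnight, were pre-treated with compound in HBSS/25 mM HEPES/1% BSA for 1 h at 37 °C, then stimulated with TGF-β (final 10 ng/mL) for 30 min. Lysates were assayed for pSMAD3 by AlphaLISA; pIC50 came from dose-dependent signal change versus TGF-β-stimulated untreated cells.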

SMILES	Ki [1] [nM]	IC50 [2] [nM]
CC(=O)N[C@H]1CC=C(c2cnc3ccc(-c4nc[nH]c4-c4cccc(C)n4)cc3c2)CC1 [Compound 691, N-[(1R)-4-[6-[5-(6-methyl-2-pyridyl)-1H-imidazol-4-yl]-3-quinolyl]cyclohex-3-en-1-yl]acetamide]	< 0.0316	< 20
Cc1cccc(-c2n[nH]cc2-c2ccc3ncc(-c4ccn(C)n4)cc3n2)n1 [Compound 692, 7-(1-methylpyrazol-3-yl)-2-[3-(6-methyl-2-pyridyl)-1H-pyrazol-4-yl]-1,5-naphthyridine]	< 0.0316	< 20
Cc1cccc(-c2nc3ccccn3c2-c2ccc3ncc(-c4cc5n(n4)CCNC5)cc3n2)n1 [Compound 693, 2-[2-(6-methyl-2-pyridyl)imidazo[1,2-a]pyridin-3-yl]-7-(4,5,6,7-tetrahydropyrazolo[1,5-a]pyrazin-2-yl)-1,5-naphthyridine]	< 0.0316	< 20
Cc1cccc(-c2n[nH]cc2-c2ccc3ncc(O)cc3n2)n1 [Compound 694, 6-[3-(6-methyl-2-pyridyl)-1H-pyrazol-4-yl]-1,5-naphthyridin-3-ol]	0.0398 to 0.316	< 20
Cc1cccc(-c2[nH]cnc2-c2ccc3ncc(Nc4ccc(N5CCN(C(C)C)CC5)cn4)cc3n2)n1 [Compound 695, N-[5-(4-isopropylpiperazin-1-yl)-2-pyridyl]-6-[5-(6-methyl-2-pyridyl)-1H-imidazol-4-yl]-1,5-naphthyridin-3-amine]	0.0398 to 0.316	25.1 to 158
Cc1cccc(-c2n[nH]cc2-c2ccc3ncc(-c4coc(CCN5CCNCC5)n4)cc3n2)n1 [Compound 697, 4-[6-[3-(6-methyl-2-pyridyl)-1H-pyrazol-4-yl]-1,5-naphthyridin-3-yl]-2-(2-piperazin-1-ylethyl)oxazole]	0.0398 to 0.316	200 to 1260
Cc1cccc(-c2n[nH]cc2-c2ccc3ncc(NCC(C)(C)N4CCN(C(C)C)CC4)cc3n2)n1 [Compound 698, N-[2-(4-isopropylpiperazin-1-yl)-2-methyl-propyl]-6-[3-(6-methyl-2-pyridyl)-1H-pyrazol-4-yl]-1,5-naphthyridin-3-amine]	0.0398 to 0.316	25.1 to 158
Cc1cccc(-c2[nH]cnc2-c2ccc3ncc(-c4ccc5c(c4)CNC5)cc3c2)n1 [Compound 699, 3-isoindolin-5-yl-6-[5-(6-methyl-2-pyridyl)-1H-imidazol-4-yl]quinoline]	< 0.0316	< 20
Cc1cccc(-c2[nH]cnc2-c2ccc3ncc(C(=O)OCC4CNC4)cc3c2)n1 [Compound 700, azetidin-3-ylmethyl 6-[5-(6-methyl-2-pyridyl)-1H-imidazol-4-yl]quinoline-3-carboxylate]	0.0398 to 0.316	25.1 to 158
Cc1cccc(-c2[nH]cnc2-c2ccc3ncc(N4CCC(C(=O)OC5CCNCC5)CC4)cc3c2)n1 [Compound 701, piperidin-4-yl 1-(6-(5-(6-methylpyridin-2-yl)-1H-imidazol-4-yl)quinolin-3-yl)piperidine-4-carboxylate]	0.0398 to 0.316	200 to 1260
Cc1cccc(-c2[nH]cnc2-c2ccc3ncc(N4CCC(C(=O)O[C@@H]5CCN(C)C5)CC4)cc3c2)n1 [Compound 702, [(3R)-1-methylpyrrolidin-3-yl] 1-[6-[5-(6-methyl-2-pyridyl)-1H-imidazol-4-yl]-3-quinolyl]piperidine-4-carboxylate]	0.0398 to 0.316	25.1 to 158
Cc1cccc(-c2[nH]cnc2-c2ccc3ncc(NCCN4CCC5(CCNCC5)C4)cc3c2)n1 [Compound 703, N-[2-(2,8-diazaspiro[4.5]decan-2-yl)ethyl]-6-[5-(6-methyl-2-pyridyl)-1H-imidazol-4-yl]quinolin-3-amine]	0.0398 to 0.316	25.1 to 158
Cc1cccc(-c2[nH]cnc2-c2ccc3ncc(-c4cncc(C(=O)O[C@H]5CCN(C)C5)c4)cc3c2)n1 [Compound 704, [(3S)-1-methylpyrrolidin-3-yl] 5-[6-[5-(6-methyl-2-pyridyl)-1H-imidazol-4-yl]-3-quinolyl]pyridine-3-carboxylate]	0.0398 to 0.316	25.1 to 158
